From patent US9956204B2, “Composition for exterminating scuticociliates in fish including mebendazole” (NATIONAL INSTITUTE OF FISHERIES SCIENCE, priority 2016, dated 2018)

What was measured:
scuticociliates [1] = assay: Scuticociliates extermination effect of candidate substances in MEM medium; type: cell-based; settings: MEM medium
Method: CHSE-214 cell line into which scuticociliates were inoculated was cultured in advance. The CHSE-214 cell line was cultured in an incubator using an MEM medium at 22° C. Scuticociliates inoculated into the cell line proliferated for 3 days by which the number reaches to be capable of analyzing in vitro anti-scuticociliates effect. Scuticociliates that feed on the cell line and sufficiently grow were mixed with the candidate substance and the activity of scuticociliates was measured.
In order to analyze the antiparasitic activity of the above 19 types of candidate substances of scuticociliates extermination drugs, scuticociliates were cultured for 3 days, and 100 μl (1×10^5) was dispensed into each well of 96 wells. The candidate substances were diluted by each concentration and the final volume was dispensed into 100 μl. Thereafter, the two were mixed and finally made into 200 μl.

scuticociliates [2] = assay: Scuticociliates extermination effect of candidate substances in seawater medium; type: cell-based; settings: seawater medium; for Survival or Death of scuticociliates (activity and shape, microscope): 4 hour
Method: For this, scuticociliates were cultured in CHSE-214 cell line (using MEM medium), and then scuticociliates were collected and centrifuged with sterilized seawater or artificial seawater (20‰) to replace them with a seawater medium. Each of 100 μl (1×10^5) was dispensed into each well of 96 wells, followed by further culture for 30 minutes. The candidate substances diluted in seawater to have a volume of 100 μl per each concentration were mixed with scuticociliates to have the final volume of 200 μl and cultured for 4 hour.

scuticociliates [3] = assay: Clinical trial: cumulative mortality of olive flounder artificially infected with scuticociliates; type: in vivo; settings: observed for 15 days
Method: For the artificial infection, 1×10^5 of scuticociliates per fish were intraperitoneally injected into a total of […] juvenile olive flounder (average 10 cm). The experiment was performed by dividing them into 5 groups of every 20 fish per each experiment.

scuticociliates [4] = assay: Field test of Mebendazole for exterminating scuticociliates in olive flounder farms; type: in vivo
Source text: The pharmaceutical efficacy was investigated after administering Mebendazole once daily for 5˜7 days to the olive flounder which are infected with scuticociliates in three major domestic olive flounder aquaculture area (Jeju, Wando, Pohang). First, the natural scuticociliates infection rate of each olive flounder farm was investigated, and the efficacy was investigated after administering Mebendazole accordingly. [table]

[5] = in vivo
Method: (§1) Mebendazole was orally or immersing administered at a concentration of 100 or 500 mg/kg BW (ppm) to the olive flounder once for 1 hour. After 6 hours, 1 day, 2 days, 7 days and 14 days, a blood chemistry analysis and an immunological analysis were conducted.
(§2) The blood chemistry analysis was conducted using Fuji-Dri Chem 4500 (Fuji company, Japan) to measure hemoglobin (Hb), hematocrit (Ht), glucose (GLU), total protein (TP), total cholesterol (TCHO), GOT/GPT and lactic acid (LDH), etc.

lysozyme = settings: in vivo
Method: as §1
The immunological analysis was conducted to measure the lysozyme activity of the kidney, spleen and serum (Lange et al., 2001, Parry, R. M. Chandau, R. C. & Shahani, R. M. (1965). A rapid and sensitive assay of muramidase. Proceedings of the Society for Experimental Biology Medicine 119, 384-386). In brief explanation, 100 μl of the prepared plasma was diluted with PBS (pH 6.2) in 2-fold to 4 steps on a 96-well plate and 100 μg of Micrococcus lysodekiticus (Sigma, USA) liquid diluted with PBS (pH 6.2) to 0.4 mg/ml was added to each well. After that, absorbance at 590 nm was measured every 0, 15, 30, 45 and 60 minutes. One unit of lysozyme activity was converted into the amount of a sample that decreases the absorbance 0.001/min.

[6] = within 24~48 hours; cited from earlier work
[7] = Safety test according to field test: blood chemistry in Wando, Pohang and Jeju farms; settings: field application concentration range
Method: as §1, §2

SMILES	Survival or Death of scuticociliates (activity and shape, microscope) (scuticociliates [1]; Dosage 10 ppm)	Survival or Death of scuticociliates (activity and shape, microscope) (scuticociliates [1]; Dosage 50 ppm)	Survival or Death of scuticociliates (activity and shape, microscope) (scuticociliates [1]; Dosage 100 ppm)	Survival or Death of scuticociliates (activity and shape, microscope) (scuticociliates [1]; Dosage 200 ppm)	Survival or Death of scuticociliates (activity and shape, microscope) (scuticociliates [1]; Dosage 300 ppm)	Survival or Death of scuticociliates (activity and shape, microscope) (scuticociliates [1]; Dosage 400 ppm)	Survival or Death of scuticociliates (activity and shape, microscope) (scuticociliates [1]; Dosage 500 ppm)	Survival or Death of scuticociliates (activity and shape, microscope) (scuticociliates [1]; Dosage 600 ppm)	Survival or Death of scuticociliates (activity and shape, microscope) (scuticociliates [1]; Dosage 700 ppm)	Survival or Death of scuticociliates (activity and shape, microscope) (scuticociliates [1]; Dosage 800 ppm)	Survival or Death of scuticociliates (activity and shape, microscope) (scuticociliates [1]; Dosage 900 ppm)	Survival or Death of scuticociliates (activity and shape, microscope) (scuticociliates [1]; Dosage 1000 ppm)	Survival or Death of scuticociliates (activity and shape, microscope) (scuticociliates [2]; Dosage 10 ppm)	Survival or Death of scuticociliates (activity and shape, microscope) (scuticociliates [2]; Dosage 50 ppm)	Survival or Death of scuticociliates (activity and shape, microscope) (scuticociliates [2]; Dosage 100 ppm)	Survival or Death of scuticociliates (activity and shape, microscope) (scuticociliates [2]; Dosage 200 ppm)	Survival or Death of scuticociliates (activity and shape, microscope) (scuticociliates [2]; Dosage 300 ppm)	Survival or Death of scuticociliates (activity and shape, microscope) (scuticociliates [2]; Dosage 400 ppm)	Survival or Death of scuticociliates (activity and shape, microscope) (scuticociliates [2]; Dosage 500 ppm)	Survival or Death of scuticociliates (activity and shape, microscope) (scuticociliates [2]; Dosage 600 ppm)	also measured
COC(=O)Nc1nc2ccc(C(=O)c3ccccc3)cc2[nH]1 [Mebendazole]	Survival	Survival	Death	Death	Death	Death	Death	Death	Death	Death	Death	Death	Survival	Survival	Death	Death	Death	Death	Death	Death	killing of scuticociliates compared with the 19 candidate substances (scuticociliates [1]): effect of killing scuticociliates at the lowest concentration; killing of scuticociliates compared with the 19 candidate substances (scuticociliates [2]): most effectively kills scuticociliates; Survival or Death of scuticociliates (activity and shape, microscope) (scuticociliates [2]; Dosage 700 ppm): Death; Survival or Death of scuticociliates (activity and shape, microscope) (scuticociliates [2]; Dosage 800 ppm): Death; Survival or Death of scuticociliates (activity and shape, microscope) (scuticociliates [2]; Dosage 900 ppm): Death; Survival or Death of scuticociliates (activity and shape, microscope) (scuticociliates [2]; Dosage 1000 ppm): Death; cumulative mortality rate (scuticociliates [3]; immersion administration 100 ppm for 1 hour): remarkably decreased; cumulative mortality rate (scuticociliates [3]; oral administration once, feed with 200 ppm): remarkably decreased; infection of scuticociliates after administration (scuticociliates [4]; Juju farm, once daily for 5 days, infection rate before 50%): no infection of scuticociliates was detected; infection of scuticociliates after administration (scuticociliates [4]; Pohang farm, once daily for 7 days, infection rate before 70%): no infection of scuticociliates was detected; infection of scuticociliates after administration (scuticociliates [4]; Wando farm, once daily for 7 days, infection rate before 70%): no infection of scuticociliates was detected; MCHC numerical values [5]: did not show any significant differences; concentration of Hb in the blood [5]: slightly increases; effect on activity of lysozyme in serum, spleen, kidney (lysozyme): does not affect the activity of lysozyme; oral dose excreted in the urine [6]: 10%; liver index (GOT and GPT) of infected fish after administration [7]: lowered to the normal range
CCCSc1ccc2nc(NC(=O)OC)[nH]c2c1 [Albendazole]	Survival	Survival	Survival	Survival	Survival	Survival	Survival	Survival	Survival	Δ	Death	Death	Survival	Survival	Survival	Survival	Survival	Survival	Survival	Survival	Survival or Death of scuticociliates (activity and shape, microscope) (scuticociliates [2]; Dosage 700 ppm): Survival; Survival or Death of scuticociliates (activity and shape, microscope) (scuticociliates [2]; Dosage 800 ppm): Δ; Survival or Death of scuticociliates (activity and shape, microscope) (scuticociliates [2]; Dosage 900 ppm): Death; Survival or Death of scuticociliates (activity and shape, microscope) (scuticociliates [2]; Dosage 1000 ppm): Death
